In patent US20240287070A1, “FUSED HETEROCYCLIC DERIVATIVES” (Janssen Sciences Ireland Unlimited Company, priority 2021, published 2024):

Assays:
[1] = tested on: HBV (HepG2.117 cell line, inducibly HBV producing); experiment: Anti-HBV activity, intracellular HBV DNA by real-time PCR in HepG2.117 cell line; type: cell-based, hepatitis B virus; conditions: HepG2.117 cells, 3 days of treatment
Procedure, shortened: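 Read-out is intracellular HBV DNA, measured by real-time PCR using HBV-specific primers and probe. Cells were stable, inducible HBV-producing HepG2.117 (Tet-off). Serially diluted compound was applied for 3 days after replication was induced.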

HepG2 or HepG2.117 cells = experiment: Cytotoxicity, ATPlite Luminescence Assay; type: cell-based, human; conditions: 3-days incubation unless marked with *
Procedure, shortened: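 Viability after compound treatment is read as ATP luminescence. Exposure lasts 3 or 4 days.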

[2] = Human liver microsome stability; type: in vitro ADME; conditions: pooled human liver microsomes 0.5 mg/mL, 1 μM compound, NADPH 1 mM, 37° C., 0-60 min
Procedure, shortened: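 Single incubations with human liver microsomes started with 1 mM NADPH; samples taken at 0, 5, 10, 20, 40 and 60 min, quenched in acetonitrile (1:3). Cassette LC-MS analysis with internal standard; t½ derived from slope of ln peak-area ratio versus time (k = −gradient).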

| SMILES | EC50 [1] | CC50 (HepG2 or HepG2.117 cells) | HLM Metabolism t1/2 [2] |
| --- | --- | --- | --- |
| CC(c1cnc(C(F)(F)F)cn1)N1C[C@@H](C)n2nc3c(c2C1=O)CN(C(=O)c1ccc(Cl)c(Cl)c1)[C@H](C)C3 (single isomer, unassigned) [Compound 7B, (3R,7R)-2-(3,4-dichlorobenzoyl)-3,7-dimethyl-9-((S*)-1-(5-(trifluoromethyl)pyrazin-2-yl)ethyl)-1,2,3,4,8,9-hexahydropyrido[4′,3′:3,4]pyrazolo[1,5-a]pyrazin-10(7H)-one] | 0.048 µM | 16.9 µM | >3 h |
| CC(c1ccc(C(C)(C)O)cc1)N1C[C@@H](C)n2nc3c(c2C1=O)CN(C(=O)c1ccc(Cl)c(Cl)c1)[C@H](C)C3 (single isomer, unassigned) [Compound 8B, (3R,7R)-2-(3,4-dichlorobenzoyl)-9-((S*)-1-(4-(2-hydroxypropan-2-yl)phenyl)ethyl)-3,7-dimethyl-1,2,3,4,8,9-hexahydropyrido[4′,3′:3,4]pyrazolo[1,5-a]pyrazin-10(7H)-one] | 0.009 µM | 18.7 µM | >3 h |
| CC(c1ccc(N2CCCC2=O)cc1)N1C[C@@H](C)n2nc3c(c2C1=O)CN(C(=O)c1ccc(Cl)c(C#N)c1)[C@H](C)C3 (single isomer, unassigned) [Compound 9B, 2-Chloro-5-((3R,7R)-3,7-dimethyl-10-oxo-9-((S*)-1-(4-(2-oxopyrrolidin-1-yl)phenyl)ethyl)-1,2,3,4,7,8,9,10-octahydropyrido[4′,3′:3,4]pyrazolo[1,5-a]pyrazine-2-carbonyl)benzonitrile] | 0.02 µM | > 50 µM | 1.83 h |
| CC(c1ccc(-n2cncn2)cc1)N1C[C@@H](C)n2nc3c(c2C1=O)CN(C(=O)c1ccc(Cl)c(C#N)c1)[C@H](C)C3 (single isomer, unassigned) [Compound 11B, 5-((3R,7R)-9-((S*)-1-(4-(1H-1,2,4-triazol-1-yl)phenyl)ethyl)-3,7-dimethyl-10-oxo-1,2,3,4,7,8,9,10-octahydropyrido[4′,3′:3,4]pyrazolo[1,5-a]pyrazine-2-carbonyl)-2-chlorobenzonitrile] | 0.032 µM | > 50 µM | >3 h |
| CC(c1ccc(C(F)(F)F)nc1)N1C[C@@H](C)n2nc3c(c2C1=O)CN(C(=O)c1ccc(Cl)c(C#N)c1)[C@H](C)C3 (single isomer, unassigned) [Compound 12B, 2-Chloro-5-((3R,7R)-3,7-dimethyl-10-oxo-9-((S*)-1-(6-(trifluoromethyl)pyridin-3-yl)ethyl)-1,2,3,4,7,8,9,10-octahydropyrido[4′,3′:3,4]pyrazolo[1,5-a]pyrazine-2-carbonyl)benzonitrile] | 0.068 µM | > 50 µM | >3 h |
| CNC(=O)C1(Oc2ccc(C(C)N3C[C@@H](C)n4nc5c(c4C3=O)CN(C(=O)c3ccc(Cl)c(C#N)c3)[C@H](C)C5)cc2)CC1 (single isomer, unassigned) [Compound 13B, 1-(4-((S*)-1-((3R,7R)-2-(4-chloro-3-cyanobenzoyl)-3,7-dimethyl-10-oxo-1,2,3,4,7,8-hexahydropyrido[4′,3′:3,4]pyrazolo[1,5-a]pyrazin-9(10H)-yl)ethyl)phenoxy)-N-methylcyclopropanecarboxamide] | 0.091 µM | > 50 µM | 2.15 h |
| CC(c1ccc(C2(O)CC2)cc1)N1C[C@@H](C)n2nc3c(c2C1=O)CN(C(=O)c1ccc(Cl)c(C#N)c1)[C@H](C)C3 (single isomer, unassigned) [Compound 14B, 2-Chloro-5-((3R,7R)-9-((S*)-1-(4-(1-hydroxycyclopropyl)phenyl)ethyl)-3,7-dimethyl-10-oxo-1,2,3,4,7,8,9,10-octahydropyrido[4′,3′:3,4]pyrazolo[1,5-a]pyrazine-2-carbonyl)benzonitrile] | 0.015 µM | > 50 µM | 1.17 h |
| CC(c1ccc(S(C)(=O)=O)cc1)N1C[C@@H](C)n2nc3c(c2C1=O)CN(C(=O)c1ccc(Cl)c(Cl)c1)[C@H](C)C3 (single isomer, unassigned) [Compound 15B, (3R,7R)-2-(3,4-dichlorobenzoyl)-3,7-dimethyl-9-((S*)-1-(4-(methylsulfonyl)phenyl)ethyl)-1,2,3,4,8,9-hexahydropyrido[4′,3′:3,4]pyrazolo[1,5-a]pyrazin-10(7H)-one] | 0.019 µM | > 50 µM | >3 h |
| CC(c1ccc(S(N)(=O)=O)cc1)N1C[C@@H](C)n2nc3c(c2C1=O)CN(C(=O)c1ccc(Cl)c(Cl)c1)[C@H](C)C3 (single isomer, unassigned) [Compound 16B, 4-((S*)-1-((3R,7R)-2-(3,4-dichlorobenzoyl)-3,7-dimethyl-10-oxo-1,2,3,4,7,8-hexahydropyrido[4′,3′:3,4]pyrazolo[1,5-a]pyrazin-9(10H)-yl)ethyl)benzenesulfonamide] | 0.059 µM | > 50 µM | >3 h |
| CNS(=O)(=O)c1ccc(C(C)N2C[C@@H](C)n3nc4c(c3C2=O)CN(C(=O)c2ccc(Cl)c(Cl)c2)[C@H](C)C4)cc1 (single isomer, unassigned) [Compound 17B, 4-((S*)-1-((3R,7R)-2-(3,4-dichlorobenzoyl)-3,7-dimethyl-10-oxo-1,3,4,7,8,10-hexahydropyrido[4′,3′:3,4]pyrazolo[1,5-a]pyrazin-9(2H)-yl)ethyl)-N-methylbenzenesulfonamide] | 0.026 µM | > 50 µM | 1.6 h |
| CC(c1ccc(-c2ccn(C)n2)cc1)N1C[C@@H](C)n2nc3c(c2C1=O)CN(C(=O)c1ccc(Cl)c(C#N)c1)[C@H](C)C3 (single isomer, unassigned) [Compound 21B, 2-Chloro-5-((3R,7R)-3,7-dimethyl-9-((S*)-1-(4-(1-methyl-1H-pyrazol-3-yl)phenyl)ethyl)-10-oxo-1,2,3,4,7,8,9,10-octahydropyrido[4′,3′:3,4]pyrazolo[1,5-a]pyrazine-2-carbonyl)benzonitrile] | 0.012 µM | > 50 µM | 2.5 h |
| Cc1nnn(-c2ccc(C(C)N3C[C@@H](C)n4nc5c(c4C3=O)CN(C(=O)c3ccc(Cl)c(Cl)c3)[C@H](C)C5)cc2)n1 (single isomer, unassigned) [Compound 22B, (3R,7R)-2-(3,4-dichlorobenzoyl)-3,7-dimethyl-9-((S*)-1-(4-(5-methyl-2H-tetrazol-2-yl)phenyl)ethyl)-1,2,3,4,8,9-hexahydropyrido[4′,3′:3,4]pyrazolo[1,5-a]pyrazin-10(7H)-one] | 0.02 µM | > 50 µM | 2.13 h |
| CNC(=O)C(c1ccc(OC(F)F)cc1)N1C[C@@H](C)n2nc3c(c2C1=O)CN(C(=O)c1ccc(Cl)c(Cl)c1)[C@H](C)C3 (single isomer, unassigned) [Compound 23B, (S*)-2-((3R,7R)-2-(3,4-dichlorobenzoyl)-3,7-dimethyl-10-oxo-1,3,4,7,8,10-hexahydropyrido[4′,3′:3,4]pyrazolo[1,5-a]pyrazin-9(2H)-yl)-2-(4-(difluoromethoxy)phenyl)-N-methylacetamide] | 0.24 µM | 49.3 µM | >3 h |
| CNC(=O)c1ccc(C(C)N2C[C@@H](C)n3nc4c(c3C2=O)CN(C(=O)c2ccc(Cl)c(Cl)c2)[C@H](C)C4)cn1 (single isomer, unassigned) [Compound 24B, 5-((S*)-1-((3R,7R)-2-(3,4-dichlorobenzoyl)-3,7-dimethyl-10-oxo-1,3,4,7,8,10-hexahydropyrido[4′,3′:3,4]pyrazolo[1,5-a]pyrazin-9(2H)-yl)ethyl)-N-methylpicolinamide] | 0.02 µM | > 50 µM | >3 h |
| Cc1nnn(-c2ccc(C(C)N3C[C@@H](C)n4nc5c(c4C3=O)CN(C(=O)c3ccc(Cl)c(Cl)c3)[C@H](C)C5)cn2)n1 (single isomer, unassigned) [Compound 26B, (3R,7R)-2-(3,4-dichlorobenzoyl)-3,7-dimethyl-9-((S*)-1-(6-(5-methyl-2H-tetrazol-2-yl)pyridin-3-yl)ethyl)-1,2,3,4,8,9-hexahydropyrido[4′,3′:3,4]pyrazolo[1,5-a]pyrazin-10(7H)-one] | 0.02 µM | > 50 µM | 1.13 h |
| Cc1nnnn1-c1ccc(C(C)N2C[C@@H](C)n3nc4c(c3C2=O)CN(C(=O)c2ccc(Cl)c(Cl)c2)[C@H](C)C4)cn1 (single isomer, unassigned) [Compound 27B, (3R,7R)-2-(3,4-dichlorobenzoyl)-3,7-dimethyl-9-((S*)-1-(6-(5-methyl-1H-tetrazol-1-yl)pyridin-3-yl)ethyl)-1,2,3,4,8,9-hexahydropyrido[4′,3′:3,4]pyrazolo[1,5-a]pyrazin-10(7H)-one] | 0.018 µM | > 50 µM | 1.39 h |
| CC(c1ccc(N2CCCS2(=O)=O)nc1)N1C[C@@H](C)n2nc3c(c2C1=O)CN(C(=O)c1ccc(Cl)c(C(F)(F)F)c1)[C@H](C)C3 (single isomer, unassigned) [Compound 28B, (3R,7R)-2-(4-chloro-3-(trifluoromethyl)benzoyl)-9-((S*)-1-(6-(1,1-dioxidoisothiazolidin-2-yl)pyridin-3-yl)ethyl)-3,7-dimethyl-1,2,3,4,8,9-hexahydropyrido[4′,3′: 3,4]pyrazolo[1,5-a]pyrazin-10(7H)-one] | 0.011 µM | > 50 µM | 2.37 h |
